Results published in patent publication US20250059171A1 (Hoffmann-La Roche Inc., priority 2021, published 2025).

Legend:
SARS-CoV-2 3CLpro = SARS-CoV-2 3CLpro (Severe acute respiratory syndrome coronavirus 2, UniProt P0DTD1); assay: biochemical
HCoV-229E 3CLpro = HCoV-229E 3CLpro (Human coronavirus 229E, UniProt P0C6X1); assay: HCoV-229E 3CLpro inhibition assay (FRET); assay type: biochemical
MERS-CoV 3CLpro = MERS-CoV 3CLpro (Middle East respiratory syndrome-related coronavirus, UniProt K9N7C7); assay: biochemical
Sequence of MERS-CoV 3CLpro (K9N7C7 3248-3553): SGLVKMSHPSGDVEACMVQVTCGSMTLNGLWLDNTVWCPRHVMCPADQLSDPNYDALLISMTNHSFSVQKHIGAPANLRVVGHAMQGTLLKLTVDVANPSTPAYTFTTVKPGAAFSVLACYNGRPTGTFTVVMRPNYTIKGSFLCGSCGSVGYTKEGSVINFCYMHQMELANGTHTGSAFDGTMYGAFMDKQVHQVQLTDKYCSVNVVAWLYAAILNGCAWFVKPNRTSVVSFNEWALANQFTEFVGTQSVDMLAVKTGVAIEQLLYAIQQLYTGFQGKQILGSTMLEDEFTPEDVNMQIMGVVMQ

SARS-CoV 3CLpro = SARS-CoV 3CLpro (Severe acute respiratory syndrome coronavirus, UniProt P0C6X7); assay: biochemical

Sequence of HCoV-229E 3CLpro (P0C6X1 2966-3267): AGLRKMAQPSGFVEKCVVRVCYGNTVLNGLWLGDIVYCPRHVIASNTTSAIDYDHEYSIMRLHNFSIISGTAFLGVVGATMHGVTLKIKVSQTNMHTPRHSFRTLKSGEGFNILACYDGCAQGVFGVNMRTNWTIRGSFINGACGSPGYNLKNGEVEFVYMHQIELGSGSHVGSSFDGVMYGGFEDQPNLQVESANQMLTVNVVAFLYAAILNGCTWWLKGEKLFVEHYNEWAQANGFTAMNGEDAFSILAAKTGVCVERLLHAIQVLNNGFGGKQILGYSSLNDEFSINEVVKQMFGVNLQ

## CC(C)(C)[C@H](NC(=O)C(F)(F)F)C(=O)N1C[C@@H]2C[C@@H]2[C@H]1C(=O)NN(C[C@@H]1CCNC1=O)C(=O)[C@H](F)Cl [Example 9, N-[(1S)-1-[(1S,2S,5R)-2-[[[(2R)-2-chloro-2-fluoro-acetyl]-[[(3S)-2-oxopyrrolidin-3-yl]methyl]amino]carbamoyl]-3-azabicyclo[3.1.0]hexane-3-carbonyl]-2,2-dimethyl-propyl]-2,2,2-trifluoro-acetamide]
SARS-CoV-2 3CLpro
  IC50: 12 nM
HCoV-229E 3CLpro
  IC50: 939 nM
MERS-CoV 3CLpro
  IC50: 2780 nM
SARS-CoV 3CLpro
  IC50: 38 nM

## CC[C@@H](C)[C@H](NC(=O)C(F)(F)F)C(=O)N1C[C@@H]2CCC[C@@H]2[C@H]1C(=O)NN(C[C@@H]1CCNC1=O)C(=O)[C@H](F)Cl [Example 73, N-[(1S,2R)-1-[(3S,3aS,6aR)-3-[[[(2R)-2-chloro-2-fluoro-acetyl]-[[(3S)-2-oxopyrrolidin-3-yl]methyl]amino]carbamoyl]-3,3a,4,5,6,6a-hexahydro-1H-cyclopenta[c]pyrrole-2-carbonyl]-2-methyl-butyl]-2,2,2-trifluoro-acetamide]
SARS-CoV-2 3CLpro
  IC50: 33 nM
HCoV-229E 3CLpro
  IC50: 40 nM
MERS-CoV 3CLpro
  IC50: 110 nM
SARS-CoV 3CLpro
  IC50: 12 nM

## CCC(CC)[C@H](NC(=O)C1(F)CC1)C(=O)N1C[C@H]2[C@@H]([C@H]1C(=O)NN(C[C@@H]1CCNC1=O)C(=O)[C@@H](F)Cl)C2(C)C [Example 133, N-[(1S)-1-[(1R,2S,5S)-2-[[[(2S)-2-chloro-2-fluoro-acetyl]-[[(3S)-2-oxopyrrolidin-3-yl]methyl]amino]carbamoyl]-6,6-dimethyl-3-azabicyclo[3.1.0]hexane-3-carbonyl]-2-ethyl-butyl]-1-fluoro-cyclopropanecarboxamide]
SARS-CoV-2 3CLpro
  IC50: 20 nM
HCoV-229E 3CLpro
  IC50: 40 nM
MERS-CoV 3CLpro
  IC50: 106 nM
SARS-CoV 3CLpro
  IC50: 32 nM

## CC(C)(C)C(=O)N[C@H](C(=O)N1C[C@H]2[C@@H]([C@H]1C(=O)NN(C[C@@H]1CCNC1=O)C(=O)[C@H](F)Cl)C2(C)C)C(C)(C)C [Example 11, N-[(1S)-1-[(1R,2S,5S)-2-[[[(2R)-2-chloro-2-fluoro-acetyl]-[[(3S)-2-oxopyrrolidin-3-yl]methyl]amino]carbamoyl]-6,6-dimethyl-3-azabicyclo[3.1.0]hexane-3-carbonyl]-2,2-dimethyl-propyl]-2,2-dimethyl-propanamide]
SARS-CoV-2 3CLpro
  IC50: 218 nM
HCoV-229E 3CLpro
  IC50: 56 nM
MERS-CoV 3CLpro
  IC50: 260 nM
SARS-CoV 3CLpro
  IC50: 34 nM

## CC1(C)[C@@H]2[C@@H](C(=O)NN(C[C@@H]3CCNC3=O)C(=O)[C@H](F)Cl)N(C(=O)[C@@H](NC(=O)C(F)(F)F)c3ccccc3)C[C@@H]21 [Example 21, N-[(1S)-2-[(1R,2S,5S)-2-[[[(2R)-2-chloro-2-fluoro-acetyl]-[[(3S)-2-oxopyrrolidin-3-yl]methyl]amino]carbamoyl]-6,6-dimethyl-3-azabicyclo[3.1.0]hexan-3-yl]-2-oxo-1-phenyl-ethyl]-2,2,2-trifluoro-acetamide]
SARS-CoV-2 3CLpro
  IC50: 25 nM
HCoV-229E 3CLpro
  IC50: 34 nM
MERS-CoV 3CLpro
  IC50: 109 nM
SARS-CoV 3CLpro
  IC50: 17 nM

## CCC(C)(C)[C@H](NC(=O)[C@H](C)F)C(=O)N1C[C@H]2[C@@H]([C@H]1C(=O)NN(C[C@@H]1CCNC1=O)C(=O)[C@H](F)Cl)C2(C)C [Example 140, (2S)—N-[(1S)-1-[(1R,2S,5S)-2-[[[(2R)-2-chloro-2-fluoro-acetyl]-[[(3S)-2-oxopyrrolidin-3-yl]methyl]amino]carbamoyl]-6,6-dimethyl-3-azabicyclo[3.1.0]hexane-3-carbonyl]-2,2-dimethyl-butyl]-2-fluoro-propanamide]
SARS-CoV-2 3CLpro
  IC50: 11 nM
HCoV-229E 3CLpro
  IC50: 31 nM
MERS-CoV 3CLpro
  IC50: 94 nM
SARS-CoV 3CLpro
  IC50: 25 nM

## CC[C@H](C)[C@H](NC(=O)CC(F)(F)F)C(=O)N1C[C@@H]2CCC[C@@H]2[C@H]1C(=O)NN(C[C@@H]1CCNC1=O)C(=O)[C@H](F)Cl [Example 45, N-[(1S,2S)-1-[(3S,3aS,6aR)-3-[[[(2R)-2-chloro-2-fluoro-acetyl]-[[(3S)-2-oxopyrrolidin-3-yl]methyl]amino]carbamoyl]-3,3a,4,5,6,6a-hexahydro-1H-cyclopenta[c]pyrrole-2-carbonyl]-2-methyl-butyl]-3,3,3-trifluoro-propanamide]
SARS-CoV-2 3CLpro
  IC50: 19 nM
HCoV-229E 3CLpro
  IC50: 35 nM
MERS-CoV 3CLpro
  IC50: 104 nM
SARS-CoV 3CLpro
  IC50: 10 nM

## CC[C@H](C)[C@H](NC(=O)C(F)F)C(=O)N1C[C@H]2[C@@H]([C@H]1C(=O)NN(C[C@@H]1CCNC1=O)C(=O)[C@H](F)Cl)C2(C)C [Example 51, N-[(1S,2S)-1-[(1R,2S,5S)-2-[[[(2R)-2-chloro-2-fluoro-acetyl]-[[(3S)-2-oxopyrrolidin-3-yl]methyl]amino]carbamoyl]-6,6-dimethyl-3-azabicyclo[3.1.0]hexane-3-carbonyl]-2-methyl-butyl]-2,2-difluoro-acetamide]
SARS-CoV-2 3CLpro
  IC50: 7 nM
HCoV-229E 3CLpro
  IC50: 21 nM
MERS-CoV 3CLpro
  IC50: 59 nM
SARS-CoV 3CLpro
  IC50: 10 nM

## CCC(C)(C)[C@H](NC(=O)C1CC1)C(=O)N1C[C@H]2[C@@H]([C@H]1C(=O)NN(C[C@@H]1CCNC1=O)C(=O)[C@@H](F)Cl)C2(C)C [Example 147, N-[(1S)-1-[(1R,2S,5S)-2-[[[(2S)-2-chloro-2-fluoro-acetyl]-[[(3S)-2-oxopyrrolidin-3-yl]methyl]amino]carbamoyl]-6,6-dimethyl-3-azabicyclo[3.1.0]hexane-3-carbonyl]-2,2-dimethyl-butyl]cyclopropanecarboxamide]
SARS-CoV-2 3CLpro
  IC50: 12 nM
HCoV-229E 3CLpro
  IC50: 40 nM
MERS-CoV 3CLpro
  IC50: 89 nM
SARS-CoV 3CLpro
  IC50: 16 nM

## CC(C)(F)C(=O)N[C@H](C(=O)N1C[C@@H]2CCC[C@@H]2[C@H]1C(=O)NN(C[C@@H]1CCNC1=O)C(=O)[C@H](F)Cl)C(C)(C)C [Example 35, N-[(1S)-1-[(3S,3aS,6aR)-3-[[[(2R)-2-chloro-2-fluoro-acetyl]-[[(3S)-2-oxopyrrolidin-3-yl]methyl]amino]carbamoyl]-3,3a,4,5,6,6a-hexahydro-1H-cyclopenta[c]pyrrole-2-carbonyl]-2,2-dimethyl-propyl]-2-fluoro-2-methyl-propanamide]
SARS-CoV-2 3CLpro
  IC50: 8 nM
HCoV-229E 3CLpro
  IC50: 23 nM
MERS-CoV 3CLpro
  IC50: 60 nM
SARS-CoV 3CLpro
  IC50: 8 nM

## C[C@H]1C[C@@H](C(=O)NN(C[C@@H]2CCNC2=O)C(=O)[C@H](F)Cl)N(C(=O)[C@@H](NC(=O)C(F)(F)F)C(C)(C)C)C1 [Example 27, N-[(1S)-1-[(2S,4S)-2-[[[(2R)-2-chloro-2-fluoro-acetyl]-[[(3S)-2-oxopyrrolidin-3-yl]methyl]amino]carbamoyl]-4-methyl-pyrrolidine-1-carbonyl]-2,2-dimethyl-propyl]-2,2,2-trifluoro-acetamide]
SARS-CoV-2 3CLpro
  IC50: 29 nM
HCoV-229E 3CLpro
  IC50: 29 nM
MERS-CoV 3CLpro
  IC50: 136 nM
SARS-CoV 3CLpro
  IC50: 20 nM

## CCC(C)(C)[C@H](NC(=O)C(F)F)C(=O)N1C[C@@H]2CCC[C@@H]2[C@H]1C(=O)NN(C[C@@H]1CCCNC1=O)C(=O)[C@H](F)Cl [Example 175, N-[(1S)-1-[(3S,3aS,6aR)-3-[[[(2R)-2-chloro-2-fluoro-acetyl]-[[(3S)-2-oxo-3-piperidyl]methyl]amino]carbamoyl]-3,3a,4,5,6,6a-hexahydro-1H-cyclopenta[c]pyrrole-2-carbonyl]-2,2-dimethyl-butyl]-2,2-difluoro-acetamide]
SARS-CoV-2 3CLpro
  IC50: 10 nM
HCoV-229E 3CLpro
  IC50: 37 nM
MERS-CoV 3CLpro
  IC50: 105 nM
SARS-CoV 3CLpro
  IC50: 15 nM

## CC(C)C(=O)N[C@H](C(=O)N1C[C@@H]2CCC[C@@H]2[C@H]1C(=O)NN(C[C@@H]1CCNC1=O)C(=O)[C@H](F)Cl)C(C)(C)C [Example 33, N-[(1S)-1-[(3S,3aS,6aR)-3-[[[(2R)-2-chloro-2-fluoro-acetyl]-[[(3S)-2-oxopyrrolidin-3-yl]methyl]amino]carbamoyl]-3,3a,4,5,6,6a-hexahydro-1H-cyclopenta[c]pyrrole-2-carbonyl]-2,2-dimethyl-propyl]-2-methyl-propanamide]
SARS-CoV-2 3CLpro
  IC50: 7 nM
HCoV-229E 3CLpro
  IC50: 27 nM
MERS-CoV 3CLpro
  IC50: 79 nM
SARS-CoV 3CLpro
  IC50: 8 nM

## CC[C@H](C)[C@H](NC(=O)C(C)C)C(=O)N1C[C@H]2[C@@H]([C@H]1C(=O)NN(C[C@@H]1CCNC1=O)C(=O)[C@@H](F)Cl)C2(C)C [Example 110, N-[(1S,2S)-1-[(1R,2S,5S)-2-[[[(2S)-2-chloro-2-fluoro-acetyl]-[[(3S)-2-oxopyrrolidin-3-yl]methyl]amino]carbamoyl]-6,6-dimethyl-3-azabicyclo[3.1.0]hexane-3-carbonyl]-2-methyl-butyl]-2-methyl-propanamide]
SARS-CoV-2 3CLpro
  IC50: 24 nM
HCoV-229E 3CLpro
  IC50: 37 nM
MERS-CoV 3CLpro
  IC50: 96 nM
SARS-CoV 3CLpro
  IC50: 33 nM

## CC[C@H](C)[C@H](NC(=O)C1(F)CC1)C(=O)N1C[C@H]2[C@@H]([C@H]1C(=O)NN(C[C@@H]1CCNC1=O)C(=O)[C@@H](F)Cl)C2(C)C [Example 106, N-[(1S,2S)-1-[(1R,2S,5S)-2-[[[(2S)-2-chloro-2-fluoro-acetyl]-[[(3S)-2-oxopyrrolidin-3-yl]methyl]amino]carbamoyl]-6,6-dimethyl-3-azabicyclo[3.1.0]hexane-3-carbonyl]-2-methyl-butyl]-1-fluoro-cyclopropanecarboxamide]
SARS-CoV-2 3CLpro
  IC50: 33 nM
HCoV-229E 3CLpro
  IC50: 66 nM
MERS-CoV 3CLpro
  IC50: 179 nM
SARS-CoV 3CLpro
  IC50: 57 nM

## CC(C)(C)[C@H](NC(=O)C(F)(F)F)C(=O)N1C[C@H]2[C@@H]([C@H]1C(=O)NN(C[C@@H]1CCNC1=O)C(=O)[C@H](F)Cl)C2(C)C [Example 1, N-[(1S)-1-[(1R,2S,5S)-2-[[[(2R)-2-chloro-2-fluoro-acetyl]-[[(3S)-2-oxopyrrolidin-3-yl]methyl]amino]carbamoyl]-6,6-dimethyl-3-azabicyclo[3.1.0]hexane-3-carbonyl]-2,2-dimethyl-propyl]-2,2,2-trifluoro-acetamide]
SARS-CoV-2 3CLpro
  IC50: 10 nM
HCoV-229E 3CLpro
  IC50: 35 nM
MERS-CoV 3CLpro
  IC50: 115 nM
SARS-CoV 3CLpro
  IC50: 15 nM
